Source: patent publication US20250312343A1, “COMBINATION THERAPIES USING PRMT5 INHIBITORS AND KRAS G12D INHIBITORS FOR THE TREATMENT OF CANCER” (MIRATI THERAPEUTICS, INC., priority 2024, published 2025)

Legend:
[1] = tested on: MTAP^DEL and KRAS^G12D pancreatic tumor xenograft SU8686 model; assay: MRTX1719 + KRAS G12D inhibitor combination study, SU8686 xenograft; type: in vivo, nu/nu mice; conditions: for Tumor volume: MRTX1133 30 mg/kg BID IP, n=5/group, method gives mm^3
Description: (§1) Immunodeficient female mice were implanted with human cancer models harboring homozygous deletion of the MTAP gene (MTAP^DEL) and a KRAS^G12D mutation. Mouse health was monitored daily, and caliper measurements began when tumors were palpable. Tumor volume measurements were determined utilizing the formula 0.5×L×W2 in which L refers to length and W refers to width of each tumor. When tumors reached approximately 200-300 mm^3, animals were randomized to receive A) vehicle, B) a PRMT5 inhibitor administered orally (PO) formulated in 0.5% methylcellulose (4000 cps)/0.2% Tween80 in water, C) KRAS G12D inhibitor administered via intraperitoneal injection (IP) formulated in 10% Captisol in 50 mM Citrate buffer pH 5.0, or D) the PRMT5 inhibitor and KRAS G12D inhibitor. Tumor volumes were measured twice a week (n=5/treatment group). Tumor Growth Inhibition (% TGI) was calculated when the average final treated tumor volume was greater than initial treated tumor volume using the formula: (1-(Final Drug Treated Tumor Volume—Initial Drug Treated Tumor Volume)/(Final Vehicle Treated Tumor Volume -Initial Vehicle Treated Tumor Volume))*100. Percent Regression (% Regression) was calculated when the average tumor volume of final treated tumors was less than initial treated tumor volume using the formula: (−100%)*(1−((Final treated tumor volume)/(Initial treated tumor volume)).
This example was conducted in immunodeficient female nu/nu mice that were implanted with 5×10^6 SU8686 pancreatic cancer cells in 50% Matrigel. according to the study procedure described above. The PRMT5 inhibitor was MRTX1719 administered at 100 mg/kg once a day (QD). MRTX1719 used is as described herein.
(§2) The KRAS^G12D inhibitor used in this example was MRTX1133 administered at 30 mg/kg twice a day (BID). MRTX1133 used is as described herein.

[2] = tested on: MTAP^DEL and KRAS^G12D pancreatic tumor xenograft KP4 model; assay: MRTX1719 + KRAS G12D inhibitor combination study, KP4 xenograft; type: in vivo, nu/nu mice; conditions: MRTX1133 30 mg/kg BID IP; for Tumor volume: n=5/group, method gives mm^3, in mm³; for % TGI (Tumor Growth Inhibition): final vs initial treated tumor volume relative to vehicle, MRTX1719 100 mg/kg QD PO
Description: as §1
This example was conducted in immunodeficient female nu/nu mice that were implanted with 5×10^6 KP4 pancreatic cancer cells in 50% Matrigel. according to the study procedure described above. The PRMT5 inhibitor was MRTX1719 administered at 100 mg/kg once a day (QD). MRTX1719 used is a described herein.
as §2

[3] = Study Day 2, MRTX1719 100 mg/kg QD PO
[4] = Study Day 7, MRTX1719 100 mg/kg QD PO
[5] = Study Day 9, MRTX1719 100 mg/kg QD PO
[6] = Study Day 13, MRTX1719 100 mg/kg QD PO
[7] = Study Day 16, MRTX1719 100 mg/kg QD PO
[8] = Study Day 20, MRTX1719 100 mg/kg QD PO
[9] = Study Day 23, MRTX1719 100 mg/kg QD PO
[10] = Study Day 28, MRTX1719 100 mg/kg QD PO
[11] = Study Day 31, MRTX1719 100 mg/kg QD PO
[12] = Study Day 34, MRTX1719 100 mg/kg QD PO
[13] = Study Day 37, MRTX1719 100 mg/kg QD PO
[14] = Study Day 41, MRTX1719 100 mg/kg QD PO
[15] = Study Day 44, MRTX1719 100 mg/kg QD PO
[16] = Study Day −1, MRTX1719 100 mg/kg QD PO
[17] = Study Day 0, MRTX1719 100 mg/kg QD PO
[18] = Study Day 3, MRTX1719 100 mg/kg QD PO
[19] = Study Day 10, MRTX1719 100 mg/kg QD PO
[20] = Study Day 14, MRTX1719 100 mg/kg QD PO
[21] = Study Day 17, MRTX1719 100 mg/kg QD PO
[22] = Study Day 21, MRTX1719 100 mg/kg QD PO
[23] = Study Day 24, MRTX1719 100 mg/kg QD PO

## C#Cc1c(F)ccc2cc(O)cc(-c3ncc4c(N5CC6CCC(C5)N6)nc(OC[C@@]56CCCN5C[C@H](F)C6)nc4c3F)c12 [MRTX1133]
[1]; [3]
  Tumor volume: 180 mm³
[1]; [4]
  Tumor volume: 143 mm³
[1]; [5]
  Tumor volume: 142 mm³
[1]; [6]
  Tumor volume: 146 mm³
[1]; [7]
  Tumor volume: 145 mm³
[1]; [8]
  Tumor volume: 164 mm³
[1]; [9]
  Tumor volume: 166 mm³
[1]; [10]
  Tumor volume: 151 mm³
[1]; [11]
  Tumor volume: 183 mm³
[1]; [12]
  Tumor volume: 191 mm³
[1]; [13]
  Tumor volume: 209 mm³
[1]; [14]
  Tumor volume: 213 mm³
[1]; [15]
  Tumor volume: 204 mm³
[1]; [16]
  Tumor volume: 212 mm³
[1]; final vs initial treated tumor volume, MRTX1133 30 mg/kg BID IP alone or with MRTX1719 100 mg/kg QD PO
  % Regression: −4.2%
[2]; [17]
  Tumor volume: 276
[2]; [18]
  Tumor volume: 202
[2]; [4]
  Tumor volume: 132
[2]; [19]
  Tumor volume: 99
[2]; [20]
  Tumor volume: 80
[2]; [21]
  Tumor volume: 91
[2]; [22]
  Tumor volume: 144
[2]; [23]
  Tumor volume: 250
[2]; [10]
  Tumor volume: 518
[2]; [11]
  Tumor volume: 766
[2]; Study Day 35, MRTX1719 100 mg/kg QD PO
  Tumor volume: 1064
[2]
  % TGI (Tumor Growth Inhibition): 53.8%

## Cn1ncc(-c2ccc3c(=O)[nH]nc(CN)c3c2)c1-c1c(F)c(Cl)cc(OC2CC2)c1C#N [MRTX1719]
[1]; [3]
  Tumor volume: 255 mm³
[1]; [4]
  Tumor volume: 317 mm³
[1]; [5]
  Tumor volume: 369 mm³
[1]; [6]
  Tumor volume: 415 mm³
[1]; [7]
  Tumor volume: 464 mm³
[1]; [8]
  Tumor volume: 467 mm³
[1]; [9]
  Tumor volume: 419 mm³
[1]; [10]
  Tumor volume: 396 mm³
[1]; [11]
  Tumor volume: 373 mm³
[1]; [12]
  Tumor volume: 372 mm³
[1]; [13]
  Tumor volume: 362 mm³
[1]; [14]
  Tumor volume: 356 mm³
[1]; [15]
  Tumor volume: 337 mm³
[1]; [16]
  Tumor volume: 200 mm³
[1]; final vs initial treated tumor volume relative to vehicle, MRTX1719 100 mg/kg QD PO
  % TGI (Tumor Growth Inhibition): 88.3%
[2]; [17]
  Tumor volume: 277
[2]; [18]
  Tumor volume: 431
[2]; [4]
  Tumor volume: 616
[2]; [19]
  Tumor volume: 716
[2]; [20]
  Tumor volume: 772
[2]; [21]
  Tumor volume: 887
[2]; [22]
  Tumor volume: 1222
[2]; [23]
  Tumor volume: 1487
[2]
  % TGI (Tumor Growth Inhibition): 29.1%
